One data set concerns RAW 264.7 cells. Nature of the data set: Assay of kinase from cell lysate (GFP-cJun phosphorylation, TR-FRET). Type of data set: cell-based, mouse. The following applies: duplicates. As for the experimental part: RAW 264.7 cells (mouse macrophage cell line) were serum starved overnight and stimulated (or not) with 10 ug/ml of Anisomycin for 15 minutes prior to lysates being prepared. Lysates were prepared following a standard protocol, e.g., as described in the Kinase Activity Assay Kit protocol, Rev. A1 Dec. 9, 2005, Catalog#KNZ0031, BioSource (California). The protocol is outlined below.
When using the Omnia™ Lysate Assay to determine MAPKAP-K2 activity in cell lysates, the following procedure for sample preparation may be used. This protocol has been successfully applied to several cell lines of human and mouse origin. • 1. Thaw Omnia Cell Extraction Buffer (BioSource, California) on ice. • 2. Set up and stimulate cells as desired. • 3. Collect cells in cold PBS by centrifugation (for non-adherent cells) or scraping from culture plates (for adherent cells). • 4. Centrifuge the cells at 1,500 rpm for 5 minutes at 4° C. • 5. Aspirate the PBS. • 6. Resuspend the cell pellet in Omnia Cell Extraction Buffer and transfer the lysate to a 1.5 mL microcentrifuge tube. The volume of Omnia Cell Extraction Buffer depends on the cell number and expression level of MAPKAP-K2. The optimal protein concentration of lysate should be in the range of 5 to 10 mg/mL. Add an appropriate amount of protease and phosphatase inhibitor (typically provided as a 100× stock solution) before using. Under these conditions, using 0.005 mL (25-50 μg) of the clarified cell extract will be sufficient for measurement of MAPKAP-K2 activity. • 7. Lyse the cells at 4° C. for 30 minutes on a rotator. Whole cell extract can then be briefly sonicated or put through a syringe and needle if desired. • 8. Centrifuge at 13,000 rpm for 20-30 minutes at 4° C. • 9. Transfer the clarified cell extracts to clean microcentrifuge tubes. • 10. The clarified cell extract should be stored at −80° C. until ready for analysis. Avoid repeated freeze-thaw cycles. In preparation for performing the assay, allow the samples to thaw on ice. Mix well prior to analysis.
Lysate was serially diluted in buffer and 5 uL aliquots were assayed against 400 nM GFP-cJun in assay buffer containing 100 uM ATP. Assays were stopped by addition of EDTA and antibody, with a final anti-phospho cJun antibody concentration of 2 nM. The plate was read after 1 hour incubation and the data collected. Samples were performed in duplicates.
In general terms: Time-resolved FRET reads energy transfer from a long-lived donor to a nearby acceptor.

Data set [1] has as its target T1, Epidermal Growth Factor Receptor (EGFR) Tyrosine Kinase (Homo sapiens, UniProt P00533).
T1 construct: purchased Invitrogen P2628
Nature of the data set: EGFR kinase multiplex FP/TR-RET assay (LOPAC screen and follow-up). It is filed as biochemical. As to conditions: re-assayed, two-fold dilutions.

Data set [2] is described as follows: Precipitation of compounds seen in the EGFR kinase assay. It is filed as physicochemical. As to conditions: EGFR kinase assay conditions.
The next data set addresses T2, UCH-L3 (Homo sapiens, UniProt P15374).
T2 construct: purchased Boston Biochem E-325
T2 sequence (P15374 1-230): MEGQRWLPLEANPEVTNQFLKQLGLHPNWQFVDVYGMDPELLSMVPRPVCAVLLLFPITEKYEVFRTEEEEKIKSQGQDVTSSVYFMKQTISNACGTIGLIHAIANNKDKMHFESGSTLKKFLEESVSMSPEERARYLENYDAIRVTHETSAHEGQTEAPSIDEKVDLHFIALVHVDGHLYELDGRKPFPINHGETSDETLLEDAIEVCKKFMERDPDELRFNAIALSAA
Nature of the data set: Deubiquitination TR-FRET assay with GFP-Ub-Tb, inhibitor titration. Type of data set: biochemical. The following applies: 0.1 nM UCH-L3 and 10 nM GFP-Ub-Tb.

Where “and” joins values, the source holds several entries; their conditions need not be identical. Equal values may be shown once.

The record followed here is patent publication US8642256B2, “Kinase and ubiquination assays” (Life Technologies Corporation, priority 2005, dated 2014).

T1 sequence (P00533 25-1210): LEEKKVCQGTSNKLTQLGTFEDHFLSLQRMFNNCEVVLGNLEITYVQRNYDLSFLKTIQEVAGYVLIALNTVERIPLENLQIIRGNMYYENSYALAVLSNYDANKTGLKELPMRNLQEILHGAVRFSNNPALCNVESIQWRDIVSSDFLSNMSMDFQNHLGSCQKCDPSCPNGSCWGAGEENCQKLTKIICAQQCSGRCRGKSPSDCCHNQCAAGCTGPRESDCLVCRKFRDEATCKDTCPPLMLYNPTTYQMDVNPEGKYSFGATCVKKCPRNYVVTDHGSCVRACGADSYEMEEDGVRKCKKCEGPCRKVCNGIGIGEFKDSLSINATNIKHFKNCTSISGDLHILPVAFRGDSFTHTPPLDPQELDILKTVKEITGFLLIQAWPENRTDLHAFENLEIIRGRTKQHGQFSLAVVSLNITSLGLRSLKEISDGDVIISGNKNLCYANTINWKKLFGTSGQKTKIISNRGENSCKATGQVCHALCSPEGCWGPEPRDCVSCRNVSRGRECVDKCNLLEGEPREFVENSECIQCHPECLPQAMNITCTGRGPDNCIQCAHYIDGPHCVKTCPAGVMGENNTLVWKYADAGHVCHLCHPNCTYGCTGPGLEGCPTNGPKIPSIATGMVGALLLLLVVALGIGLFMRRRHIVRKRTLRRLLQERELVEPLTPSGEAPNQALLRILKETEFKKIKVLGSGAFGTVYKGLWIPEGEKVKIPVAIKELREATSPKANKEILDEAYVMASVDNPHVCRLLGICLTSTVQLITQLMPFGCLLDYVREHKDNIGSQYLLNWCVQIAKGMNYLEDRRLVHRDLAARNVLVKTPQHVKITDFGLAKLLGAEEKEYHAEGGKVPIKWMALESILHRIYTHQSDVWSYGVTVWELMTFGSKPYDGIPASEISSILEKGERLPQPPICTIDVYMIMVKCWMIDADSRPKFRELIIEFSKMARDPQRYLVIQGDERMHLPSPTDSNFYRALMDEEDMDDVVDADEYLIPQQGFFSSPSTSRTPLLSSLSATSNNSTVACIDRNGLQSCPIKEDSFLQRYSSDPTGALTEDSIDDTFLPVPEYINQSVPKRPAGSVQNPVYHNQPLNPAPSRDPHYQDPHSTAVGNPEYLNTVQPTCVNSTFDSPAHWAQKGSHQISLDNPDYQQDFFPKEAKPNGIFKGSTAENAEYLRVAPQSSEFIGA

Consider `COc1ccc(C[C@H]2NC[C@H](O)[C@H]2OC(C)=O)cc1` [Anisomycin], for which the “TR-FRET value of lysate, +Anisomycin” value was 0.1308 and 0.1312 with RAW 264.7 cells (10 ug/ml Anisomycin 15 minutes, 0.003051758 % Cell Lysate in 5 uL Addition); 0.1395 and 0.1339 in the data set with RAW 264.7 cells (10 ug/ml Anisomycin 15 minutes, 0.006103516 % Cell Lysate in 5 uL Addition); 0.1419 and 0.1424 in the data set with RAW 264.7 cells (10 ug/ml Anisomycin 15 minutes, 0.01220703 % Cell Lysate in 5 uL Addition); 0.1479 and 0.1534 in the data set on RAW 264.7 cells (10 ug/ml Anisomycin 15 minutes, 0.02441406 % Cell Lysate in 5 uL Addition); 0.1572 and 0.1894 in the data set on RAW 264.7 cells (10 ug/ml Anisomycin 15 minutes, 0.04882813 % Cell Lysate in 5 uL Addition); 0.2161 and 0.2286 with RAW 264.7 cells (10 ug/ml Anisomycin 15 minutes, 0.09765625 % Cell Lysate in 5 uL Addition). Also, the “TR-FRET value of lysate, +Anisomycin” value in the data set with RAW 264.7 cells (10 ug/ml Anisomycin 15 minutes, 0.1953125 % Cell Lysate in 5 uL Addition) is 0.2474 and 0.3145; with RAW 264.7 cells (10 ug/ml Anisomycin 15 minutes, 0.390625 % Cell Lysate in 5 uL Addition), 0.2813 and 0.3421; with RAW 264.7 cells (10 ug/ml Anisomycin 15 minutes, 0.78125 % Cell Lysate in 5 uL Addition), 0.3722 and 0.4739; in the data set on RAW 264.7 cells (10 ug/ml Anisomycin 15 minutes, 1.5625 % Cell Lysate in 5 uL Addition) it was 0.4554 and 0.5687; in the data set on RAW 264.7 cells (10 ug/ml Anisomycin 15 minutes, 3.125 % Cell Lysate in 5 uL Addition) it was 0.5703 and 0.707; in the data set on RAW 264.7 cells (10 ug/ml Anisomycin 15 minutes, 6.25 % Cell Lysate in 5 uL Addition), 0.5917 and 0.7878. For the same molecule, the “TR-FRET value of lysate, +Anisomycin” value was 0.7483 and 0.8384 in the data set with RAW 264.7 cells (10 ug/ml Anisomycin 15 minutes, 12.5 % Cell Lysate in 5 uL Addition); 0.8474 and 0.8571 with RAW 264.7 cells (10 ug/ml Anisomycin 15 minutes, 25 % Cell Lysate in 5 uL Addition); 0.9027 and 0.9226 in the data set on RAW 264.7 cells (10 ug/ml Anisomycin 15 minutes, 50 % Cell Lysate in 5 uL Addition); 0.9796 and 0.9768 in the data set on RAW 264.7 cells (cells stimulated with 10 ug/ml Anisomycin 15 minutes, 100 % Cell Lysate in 5 uL Addition).

Regarding `NC(=O)c1cc(N2CC2)c([N+](=O)[O-])cc1[N+](=O)[O-]` [CB-1954], the inhibitor on re-assay result in data set [1] is reported as “neither was seen to be an inhibitor”.

For `Oc1ccccc1O` [Pyrocatechol], the inhibitor on re-assay result in data set [1] was “neither was seen to be an inhibitor”.

For `CC(C)[C@@]1(NC(=O)[C@@H]2C=C3c4cccc5[nH]cc(c45)C[C@H]3N(C)C2)O[C@@]2(O)[C@@H]3CCCN3C(=O)[C@H](Cc3ccccc3)N2C1=O` [Ergocristine], the “precipitation in the assay” value in data set [2] is given as “seen to precipitate”.

As a reminder, the IC50 is the concentration that gives 50% inhibition. Read a high IC50 as a need for much substance. The molecule ubiquitin aldehyde had an IC50 against UCH-L3 of 200 pM.

In the case of `O=C1Nc2ccc(I)cc2/C1=C/c1cc(Br)c(O)c(Br)c1` [GW5074], the “precipitation in the assay” value in data set [2] was “seen to precipitate”.
